Measurements as given in PMC12002301, “Discovery and functional characterization of a bombesin-type neuropeptide signaling system in an invertebrate” (Proceedings of the National Academy of Sciences of the …, 2025).

Tested on: ArBNR3
Assay: Luminescence (GFP-aequorin Ca2+) assay, CHO-K1 cells coexpressing ArBNR3 and Gqs5
Assay type: cell-based, Asterias rubens
Conditions: ArBNR3, words; up to 10^-5 M
Experimental: Having investigated relationships of eleven A. rubens BN-type receptor candidates (ArBNR1-11) with BN-type, ET-type, and CCHa/EP-type receptors in other taxa, ArBNR1 was identified as the best candidate and therefore this was selected for experimental testing. However, two other receptors (ArBNR2 and ArBNR3) were also tested. The methods employed for functional characterization of A. rubens neuropeptide receptors have been described previously ([57]) and a description of the methods employed in this study is included in SI Appendix, SI Methods. […]
Functional characterization of A. rubens BN-type receptors
Two cDNAs encoding ArBNR1 and ArBNR3 were cloned from A. rubens radial nerve cord cDNA using Q5 polymerase (NEB, Cat. no. M0491S) and PCR with specific primers (SI Appendix, Table S5). To facilitate expression of the cloned receptors, the forward primers were designed to contain a partial Kozak consensus sequence (ACC) before the ATG start codon. Then, PCR products were inserted into the mammalian expression vector pcDNA 3.1(+) (Invitrogen, Cat. no.
V79020) that had been cut in advance with the restriction enzyme EcoRV (NEB, Cat. no. […] Successful ligation and the direction of the insert was determined by restriction enzyme digestion and sequencing (TubeSeq service; Eurofins Genomics). […]
identical to residues 18 - 270 of the protein XP_033631283.1, which was determined from genome […]

Row | Substance | peptide-induced luminescence
1 | NYNRVFGPTY-NH2 [ArBN5-14, C-terminally amidated 10-residue peptide corresponding to the C-terminal region of ArBN] | did not trigger luminescence
2 | EPMPSSLALYIANLSP-NH2 [ArBNP65-81, C-terminally amidated 16-residue peptide predicted to be derived from residues 65 to 81 of ArBNP] | did not trigger luminescence
